In this assay the test system is HL60 promyelocytic leukemia cells. Kind of assay: Cytotoxicity assay in HL60 cells (Annexin V FITC / PI flow cytometry). It counts as cell-based. The note with it: 48 hours, 0-80 μM, % Viability (Annexin V low, PI low). As for the experimental part:
We examined the cytotoxicity of peptides BCL-26 and BCL-27 using an assay in HL60 promyelocytic leukemia cells. HL60 PML suspension cells were set at a density of 3.5×10^3 cells/well in 150 μL of RPMI+1.5% fetal bovine serum (FBS) in a 96 well dish. BCL-26 or BCL-27, reconstituted at a concentration of 10 mg/mL in 20 mM His, pH 7.5, was added to each well at a volume of 50 μL to a final concentration range of 0-80 μM. Cells were incubated with peptide for 48 hours at 37° C. Cell viability was quantified by flow cytometry using abcam Annexin V FITC apoptosis detection kit. Briefly, cells were washed with PBS and resuspended in 1× assay buffer containing Annexin V FITC and propidium iodide (PI). Annexin V detects apoptotic cells, and PI stains dead cells. After staining, apoptotic cells show green fluorescence, dead cells show red and green fluorescence, and live cells show little or no fluorescence. Cells were selected for analysis based on forward scatter (FSC) vs. side scatter (SSC), and analyzed by BD Accuri C6 Plus flow cytometer to detect Annexin V-FITC binding (Ex=488 nm; Em=530 nm) using FITC signal detector and PI staining by the phycoerythrnn emission signal detector. Percentage of Annexin V^low and PI^low were quantified and presented as % Viability.
We examined the cytotoxicity of additional retro inverso and mixed chirality BCL9 mimetic peptides in HL60 cells using the assay described above.
(In general: Flow cytometry measures light scatter and fluorescence of single cells or particles in a stream.)

Square brackets hold non-standard residues; d marks the D form. Peptide text beside a SMILES is read from it. * marks the point of attachment. Octanoyl = CCCCCCCC(=O)* Where only a bound is given, the exact number is not on record here.

The EC50 is the concentration giving half of the maximal effect. A higher EC50 goes with weaker potency. For the compound `CC(C)C[C@@H](NC(=O)[C@@H](Cc1c[nH]c2ccccc12)NC(=O)[C@H](N)Cc1c[nH]c2ccccc12)C(=O)N[C@H](C)C(=O)N[C@H](CCCNC(=N)N)C(=O)N[C@H](CCC(N)=O)C(=O)N[C@H](CC(C)C)C(=O)N[C@H](C)C(=O)N[C@H](CCCNC(=N)N)C(=O)N[C@H](CC(C)C)C(=O)N[C@H](C)C(=O)N[C@H](CCC(N)=O)C(=O)N[C@H](CC(C)C)C(=O)N[C@H](C)C(=O)N[C@H](CCCNC(=N)N)C(=O)N[C@H](CCC(=O)O)C(=O)N[C@H](CCCNC(=N)N)C(=O)N[C@H](Cc1c[nH]cn1)C(=O)N[C@H](CCC(=O)O)C(=O)N[C@H](CC(C)C)C(=O)N[C@H](CCC(N)=O)C(=O)N[C@H](CCC(=O)O)C(=O)N[C@H](CCC(N)=O)C(=O)N[C@H](CO)C(=O)N[C@H](CC(C)C)C(=O)N[C@H](CCCCN)C(=O)N[C@H](CC(C)C)C(=O)N[C@@H](C(=O)N1CCC[C@@H]1C(=O)N[C@@H](C(=O)O)C(C)C)[C@H](C)O` [BCL-84] (H-[dW][dW][dL][dA][dR][dQ][dL][dA][dR][dL][dA][dQ][dL][dA][dR][dE][dR][dH][dE][dL][dQ][dE][dQ][dS][dL][dK][dL][dT][dP][dV]-OH; N-terminus and C-terminus assumed), the EC50 was < 2 µM.

`CC(C)C[C@@H](NC(=O)[C@@H](Cc1c[nH]c2ccccc12)NC(=O)[C@H](N)Cc1c[nH]c2ccccc12)C(=O)N[C@H](C)C(=O)N[C@H](CCCNC(=N)N)C(=O)N[C@H](CCC(N)=O)C(=O)N[C@H](CC(C)C)C(=O)N[C@H](C)C(=O)N[C@H](CCCNC(=N)N)C(=O)N[C@H](CC(C)C)C(=O)N[C@H](CCC(N)=O)C(=O)N[C@H](CCC(N)=O)C(=O)N[C@H](CC(C)C)C(=O)N[C@H](C)C(=O)N[C@H](CCCCN)C(=O)N[C@H](CC(C)C)C(=O)N[C@@H](C(=O)N1CCC[C@@H]1C(=O)N[C@@H](C(=O)O)C(C)C)[C@H](C)O` [BCL-85] (H-[dW][dW][dL][dA][dR][dQ][dL][dA][dR][dL][dQ][dQ][dL][dA][dK][dL][dT][dP][dV]-OH; N-terminus and C-terminus assumed): the half-maximal effective concentration (EC50) is < 2 µM.

With `CC(C)C[C@@H](NC(=O)[C@@H](Cc1c[nH]c2ccccc12)NC(=O)[C@H](N)Cc1c[nH]c2ccccc12)C(=O)N[C@H](C)C(=O)N[C@H](CCCNC(=N)N)C(=O)N[C@H](CCC(N)=O)C(=O)N[C@H](CC(C)C)C(=O)N[C@H](CCC(=O)O)C(=O)N[C@H](CCCNC(=N)N)C(=O)N[C@H](CC(C)C)C(=O)N[C@H](C)C(=O)N[C@H](CCCNC(=N)N)C(=O)N[C@H](CC(C)C)C(=O)N[C@H](C)C(=O)N[C@H](CCCCN)C(=O)N[C@H](CC(C)C)C(=O)N[C@@H](C(=O)N1CCC[C@@H]1C(=O)N[C@@H](C(=O)O)C(C)C)[C@H](C)O` [BCL-86] (H-[dW][dW][dL][dA][dR][dQ][dL][dE][dR][dL][dA][dR][dL][dA][dK][dL][dT][dP][dV]-OH; N-terminus and C-terminus assumed), the EC50 is < 2 µM.

With `CC(C)C[C@@H](NC(=O)[C@@H](Cc1c[nH]c2ccccc12)NC(=O)[C@H](N)Cc1c[nH]c2ccccc12)C(=O)N[C@H](C)C(=O)N[C@H](CCCNC(=N)N)C(=O)N[C@H](CCC(N)=O)C(=O)N[C@H](CC(C)C)C(=O)N[C@H](CCC(=O)O)C(=O)N[C@H](CCCNC(=N)N)C(=O)N[C@H](CC(C)C)C(=O)N[C@H](CCCNC(=N)N)C(=O)N[C@H](CCCNC(=N)N)C(=O)N[C@H](CC(C)C)C(=O)N[C@H](C)C(=O)N[C@H](CCCCN)C(=O)N[C@H](CC(C)C)C(=O)N[C@@H](C(=O)N1CCC[C@@H]1C(=O)N[C@@H](C(=O)O)C(C)C)[C@H](C)O` [BCL-88] (H-[dW][dW][dL][dA][dR][dQ][dL][dE][dR][dL][dR][dR][dL][dA][dK][dL][dT][dP][dV]-OH; N-terminus and C-terminus assumed), the EC50 is < 2 µM.

In turn, `CC(C)C[C@@H](NC(=O)[C@@H](Cc1c[nH]c2ccccc12)NC(=O)[C@H](N)Cc1c[nH]c2ccccc12)C(=O)N[C@H](C)C(=O)N[C@H](CCCNC(=N)N)C(=O)N[C@H](CCC(N)=O)C(=O)N[C@H](CC(C)C)C(=O)N[C@H](C)C(=O)N[C@H](CCCNC(=N)N)C(=O)N[C@H](CC(C)C)C(=O)N[C@H](CCCCN)C(=O)N[C@H](CCC(N)=O)C(=O)N[C@H](CC(C)C)C(=O)N[C@H](C)C(=O)N[C@H](CCCCN)C(=O)N[C@H](CC(C)C)C(=O)N[C@@H](C(=O)N1CCC[C@@H]1C(=O)N[C@@H](C(=O)O)C(C)C)[C@H](C)O` [BCL-89] (H-[dW][dW][dL][dA][dR][dQ][dL][dA][dR][dL][dK][dQ][dL][dA][dK][dL][dT][dP][dV]-OH; N-terminus and C-terminus assumed) gave a 50% effective concentration (EC50) of 2 to 10 µM.

As for `CC(C)C[C@@H](NC(=O)[C@@H](Cc1c[nH]c2ccccc12)NC(=O)[C@H](N)Cc1c[nH]c2ccccc12)C(=O)N[C@H](C)C(=O)N[C@H](CCCNC(=N)N)C(=O)N[C@H](CCC(N)=O)C(=O)N[C@H](CC(C)C)C(=O)N[C@H](CCC(=O)O)C(=O)N[C@H](CCCNC(=N)N)C(=O)N[C@H](CC(C)C)C(=O)N[C@H](C)C(=O)N[C@H](CCCCN)C(=O)N[C@H](CC(C)C)C(=O)N[C@H](C)C(=O)N[C@H](CCCCN)C(=O)N[C@H](CC(C)C)C(=O)N[C@@H](C(=O)N1CCC[C@@H]1C(=O)N[C@@H](C(=O)O)C(C)C)[C@H](C)O` [BCL-90] (H-[dW][dW][dL][dA][dR][dQ][dL][dE][dR][dL][dA][dK][dL][dA][dK][dL][dT][dP][dV]-OH; N-terminus and C-terminus assumed), the EC50 lay within 2 to 10 µM.

For `CC(C)C[C@@H](NC(=O)[C@@H](CCCNC(=N)N)NC(=O)[C@@H](C)NC(=O)[C@@H](CC(C)C)NC(=O)[C@@H](CCC(N)=O)NC(=O)[C@@H](CCCNC(=N)N)NC(=O)[C@H](NC(=O)[C@@H](CC(C)C)NC(=O)[C@@H](Cc1c[nH]c2ccccc12)NC(=O)[C@H](N)Cc1c[nH]c2ccccc12)C(C)C)C(=O)N[C@H](C)C(=O)N[C@H](CCC(N)=O)C(=O)N[C@H](CC(C)C)C(=O)N[C@H](C)C(=O)N[C@H](CCCCN)C(=O)N[C@H](CC(C)C)C(=O)N[C@@H](C(=O)N1CCC[C@@H]1C(=O)N[C@@H](C(=O)O)C(C)C)[C@H](C)O` [BCL-91a] (H-[dW][dW][dL][dV][dR][dQ][dL][dA][dR][dL][dA][dQ][dL][dA][dK][dL][dT][dP][dV]-OH; N-terminus and C-terminus assumed), the EC50 was < 2 µM.

For the compound `CCCCCCCC(=O)N[C@H](Cc1c[nH]c2ccccc12)C(=O)N[C@H](Cc1c[nH]c2ccccc12)C(=O)N[C@H](CC(C)C)C(=O)N[C@@H](C(=O)N[C@H](CCCNC(=N)N)C(=O)N[C@H](CCC(N)=O)C(=O)N[C@H](CC(C)C)C(=O)N[C@H](C)C(=O)N[C@H](CCCNC(=N)N)C(=O)N[C@H](CC(C)C)C(=O)N[C@H](C)C(=O)N[C@H](CCC(N)=O)C(=O)N[C@H](CC(C)C)C(=O)N[C@H](C)C(=O)N[C@H](CCCCN)C(=O)N[C@H](CC(C)C)C(=O)N[C@@H](C(=O)N1CCC[C@@H]1C(=O)N[C@@H](C(=O)O)C(C)C)[C@H](C)O)C(C)C` [BCL-91b] (Octanoyl-[dW][dW][dL][dV][dR][dQ][dL][dA][dR][dL][dA][dQ][dL][dA][dK][dL][dT][dP][dV]-OH; C-terminus assumed), the EC50 is < 2 µM.

Consider `CC(C)C[C@@H](NC(=O)[C@@H](CCC(N)=O)NC(=O)[C@@H](C)NC(=O)[C@@H](CC(C)C)NC(=O)[C@@H](CCCNC(=N)N)NC(=O)[C@@H](C)NC(=O)[C@@H](CC(C)C)NC(=O)[C@@H](CCC(N)=O)NC(=O)[C@@H](CCCNC(=N)N)NC(=O)[C@@H](C)NC(=O)[C@@H](CC(C)C)NC(=O)[C@@H](Cc1c[nH]c2ccccc12)NC(=O)[C@@H](Cc1c[nH]c2ccccc12)NC(=O)CNC(=O)[C@@H](CCCNC(=N)N)NC(=O)CNC(=O)[C@@H](CC(=O)O)NC(=O)[C@@H](CO)NC(=O)[C@H]1CCCN1)C(=O)N[C@H](C)C(=O)O` [BCL-92] (H-[dP][dS][dD]G[dR]G[dW][dW][dL][dA][dR][dQ][dL][dA][dR][dL][dA][dQ][dL][dA]-OH; N-terminus and C-terminus assumed), for which the EC50 fell in the range of 2 to 10 µM.

In the case of `CC(C)C[C@@H](NC(=O)[C@@H](Cc1c[nH]c2ccccc12)NC(=O)[C@@H](N)Cc1c[nH]c2ccccc12)C(=O)N[C@H](C)C(=O)N[C@H](CCCNC(=N)N)C(=O)N[C@H](CCC(N)=O)C(=O)N[C@H](CC(C)C)C(=O)N[C@H](C)C(=O)N[C@H](CCCNC(=N)N)C(=O)N[C@H](CC(C)C)C(=O)N[C@H](C)C(=O)N[C@H](CCC(N)=O)C(=O)N[C@H](CC(C)C)C(=O)N[C@H](C)C(=O)N[C@H](CCCCN)C(=O)N[C@H](CC(C)C)C(=O)N[C@@H](C(=O)N1CCC[C@@H]1C(=O)N[C@@H](C(=O)O)C(C)C)[C@H](C)O` [BCL-95] (H-W[dW][dL][dA][dR][dQ][dL][dA][dR][dL][dA][dQ][dL][dA][dK][dL][dT][dP][dV]-OH; N-terminus and C-terminus assumed), the EC50 was < 2 µM.

On to `CC(C)C[C@@H](NC(=O)[C@@H](Cc1c[nH]c2ccccc12)NC(=O)[C@@H](N)Cc1c[nH]c2ccccc12)C(=O)N[C@H](C)C(=O)N[C@H](CCCNC(=N)N)C(=O)N[C@H](CCC(N)=O)C(=O)N[C@H](CC(C)C)C(=O)N[C@H](C)C(=O)N[C@H](CCCNC(=N)N)C(=O)N[C@H](CC(C)C)C(=O)N[C@H](CCCNC(=N)N)C(=O)N[C@H](CCC(N)=O)C(=O)N[C@H](CC(C)C)C(=O)N[C@H](C)C(=O)N[C@H](CCCCN)C(=O)N[C@H](CC(C)C)C(=O)N[C@@H](C(=O)N1CCC[C@@H]1C(=O)N[C@@H](C(=O)O)C(C)C)[C@H](C)O` [BCL-96] (H-W[dW][dL][dA][dR][dQ][dL][dA][dR][dL][dR][dQ][dL][dA][dK][dL][dT][dP][dV]-OH; N-terminus and C-terminus assumed), for which the EC50 was < 2 µM.
